Experimental data taken from PubChem BioAssay AID2305 (GlaxoSmithKline (GSK), 2010).
Where “and” joins values, the source holds several entries; their conditions need not be identical. Equal entries are not always repeated.

What follows are compounds tested on P. falciparum 3D7 growth, pLDH absorbance (assay: P. falciparum 3D7 growth inhibition, dose response, strain 3D7 (AID 2305)).
`Cc1cc(OC(C)C(=O)N2CCc3ccccc32)ccc1Cl` (stereo not drawn) gave an IC50 of 790 nM. `CC(C)(C)c1nn(-c2ccc(Cl)cc2)c2[nH]c(=O)c(CNCc3ccc4c(c3)OCO4)cc12` was tested, and the IC50 was 810 nM. In the case of `CC(=O)Nc1ccc(CN(Cc2ccc(C)cc2)Cc2cccc(Oc3ccccc3)c2)cc1`, the IC50 is reported as 1050 nM. `COc1cccc(C(=O)NCCOc2ccccc2)c1Oc1ccccc1` showed an IC50 of 920 nM. Compound `COC(=O)c1c(C#N)c(OC)cc(O)c1CSC[C@@H](CN1CCCCC1)Nc1nc(-c2ccc([N+](=O)[O-])cc2)cs1` has an IC50 of 1270 nM. `O=[N+]([O-])c1ccc(Nc2nc(NCc3ccccc3)nc(NN=Cc3ccccc3[N+](=O)[O-])n2)cc1` was tested, and the IC50 was 160 nM. For `CC(C)CCNC(=O)c1cc(C(=O)c2cc(F)ccc2O)cn(CCC(C)C)c1=O`, the IC50 was 750 nM. `O=C(CCCCCNC(=O)c1ccc(O)c(-c2ccc(Cl)c(Cl)c2)c1)NCCN1CCCC1` was tested, and the IC50 was 980 nM. With `CN1CCN(c2cccc(-c3nnc(-c4cccc(OCC(=O)NCc5ccc(C(F)(F)F)cc5)c4)o3)c2)CC1` the IC50 was 760 nM. `Cc1cc(-c2ccc(NC(=O)N3CCc4cc(Cl)c(N5CCN(C)CC5)cc43)cc2)ccc1C#N` showed an IC50 of 590 nM. `Cc1cc(N(C)C)nc(Nc2ccc(NC(=O)c3c(F)cccc3F)cc2)n1` showed an IC50 of 1380 nM. Compound `CCN1CCN(c2ccc(Nc3ccnc4ccc(Br)cc34)cc2)CC1` has an IC50 of 300 nM. Work on `CCN1CCC(N(Cc2ccc(-c3ccc(C(F)(F)F)cc3)cc2)C(=O)Cn2c(CCc3cccc(F)c3F)cc(=O)c3ccc(OCc4ccccc4)cc32)CC1` yielded an IC50 of 370 nM. Work on `CCS(=O)(=O)Nc1ccc2[nH]c(O)c(C(=Nc3ccc(CN4CCCCC4)cc3)c3ccccc3)c2c1` yielded an IC50 of 60 nM. Work on `CC(C)CC(=O)N(Cc1ccc(-c2ccc(CNC3Cc4ccccc4C3)cc2)cc1)C1CCNCC1` yielded an IC50 of 1170 nM. In the case of `CCC(C)c1ccc(Nc2nc(C)cc(N(CC)CCCN3CCCCC3)n2)cc1` (stereo not drawn), the IC50 is reported as 330 nM. `O=C(Nc1ccc([N+](=O)[O-])cc1Cl)c1cc2ccccc2cc1O` showed an IC50 of 1010 nM. Compound `CCOc1ccc(N2CCN(CCCCNC(=O)c3ccc(NC(=O)c4ccc(Cl)cc4)cc3)CC2)c(OCC)c1` has an IC50 of 570 nM. `O=C(NC1CCN(Cc2cccc(C(F)(F)F)c2)CC1)c1ccc(-c2cccc(Cl)c2)s1` was tested, and the IC50 was 1130 nM. Compound `CN(C)c1ccc(CN2CCC(NC(=O)c3ccc(-c4cccc(F)c4)s3)CC2)cc1` has an IC50 of 1490 nM. For `N#Cc1ccc2c(c1)CCN(CCC1CCC(NC(=O)/C=C/c3ccc4[nH]ccc4c3)CC1)CC2` (stereo not drawn), the IC50 was 1060 nM. For `CC(=O)Nc1ncc(C(=O)Nc2cccc(-c3ccc(-c4nc5ccc(C(F)(F)F)cc5[nH]4)s3)c2)s1`, the IC50 was 400 nM. `COc1cccc(Nc2nc(C)cc(NCc3ccc(-n4ccnc4)cc3)n2)c1` was tested, and the IC50 was 960 nM. `CN(C)c1ccc(C=C2SC(=N)N(c3nccs3)C2=O)cc1` gave an IC50 of 460 nM. `CC(C)NCc1cccc(-c2cccc(NC(=O)c3cccc(C#N)c3)c2)c1` gave an IC50 of 820 nM. In the case of `Cn1ccc(C(=O)Nc2ccc3c(c2)CN(Cc2ccc(N4CCCC4)o2)CCC3)n1`, the IC50 is reported as 1310 nM. With `NC1CCN(Cc2cccc(-c3ccc(-c4nc5ccc(F)cc5[nH]4)cc3)c2)C1` (stereo not drawn) the IC50 was 600 nM. `COc1ccc(Cl)cc1-c1nc(C(=O)NCCN2CCCCC2)c(C(C)C)s1` was tested, and the IC50 was 750 nM. Compound `Cc1cc(NC(=O)c2cc(S(=O)(=O)N3CCCCC3)ccc2C)no1` has an IC50 of 720 nM. `O=C(/C=C/c1ccc(Cl)c(Cl)c1)NCCCCN1CCCN(C(=O)Nc2cc(Cl)cc(Cl)c2)CC1` was tested, and the IC50 was 950 nM. `CN1CCN(c2cc3c(cc2Cl)CCN3C(=O)Nc2ccc(NC(=O)c3ccc(C(F)(F)F)cc3)cc2)CC1` showed an IC50 of 510 nM. `Cc1ccc(CN2CCC(Oc3cccc(NC(=O)c4ccc(C(F)(F)F)cc4)c3)CC2)cc1` showed an IC50 of 1020 nM. In the case of `CCCC/C=C(\Cl)c1ccc(O)c2c1C[C@H]1C[C@H]3[C@H](N(C)C)C(=O)C(C(N)=O)=C(O)[C@@]3(O)C(=O)C1=C2O`, the IC50 is reported as 1090 nM. Work on `CC(C)CCCC(C)(C)NC[C@@H](O)[C@H](Cc1ccccc1)NC(=O)c1cccc(CCC2CC2)c1` yielded an IC50 of 800 nM. For `O=S(=O)(Nc1cccc(CCN2CCCCC2CCN2CCCC2)c1)c1ccc(-c2ccccc2)cc1` (stereo not drawn), the IC50 was 1090 nM. `c1cncc(-c2cc(N3CCc4ccccc4C3)nc(-c3ccncc3)n2)c1` gave an IC50 of 40 nM. `COc1cc2nc(N(C)Cc3cc4c(Cl)cccc4s3)nc(N)c2cc1OC` gave an IC50 of 950 nM. For `Nc1cc2c(C3CCN(CC4CCN(C(=O)/C=C/c5ccc(Cl)c(Cl)c5)CC4)CC3)c[nH]c2cn1`, the IC50 was 970 nM. Work on `O=C(Nc1cccc(CN2CCCN(Cc3ccc4c(c3)OCO4)CC2)c1)c1cc2ccccc2s1` yielded an IC50 of 990 nM. `O=C(NC1CCN(Cc2ccccc2)CC1)c1cccc(-c2nc3ccc(Cl)cc3[nH]2)c1` was tested, and the IC50 was 860 nM. For `OC(CNC1CCCCC1)Cn1c2ccc(I)cc2c2cc(I)ccc21` (stereo not drawn), the IC50 was 340 nM. `O=C(Nc1ccc(Cl)c(Cl)c1)Nc1cc(C(F)(F)F)ccc1Cl` gave an IC50 of 1440 nM. `CN(CC(=O)Nc1cc(C(F)(F)F)ccc1-n1cncn1)Cc1ccc2ccccc2c1` gave an IC50 of 230 nM. In the case of `CNCCNCc1ccc(-c2cccc(-c3nc4ccc(C(F)(F)F)cc4[nH]3)c2)cc1`, the IC50 is reported as 630 nM. For `COC(=O)c1ccc(C[C@@H](C)NC[C@H](O)c2cccc(OCc3ccccc3)c2)cc1`, the IC50 was 1160 nM. In the case of `C=CCc1cc(Cc2cnc(N)nc2N)c2ccc(C)nc2c1O`, the IC50 is reported as 1040 nM. In the case of `Oc1ccc2ccccc2c1CNC1CCCCCC1`, the IC50 is reported as 930 nM. `O=C(/C=C/c1ccc(I)cc1)NCCCCCN1CCC(c2c[nH]c3ccccc23)CC1` showed an IC50 of 840 nM. Compound `O=c1cc(NCCCNCc2csc(Br)c2Sc2ccc(Cl)cc2)[nH]c2ccccc12` has an IC50 of 850 nM. `N#CCCN1CCN(Cc2cccc(-c3ccc(-c4nc5ccc(F)cc5[nH]4)cc3)c2)CC1` gave an IC50 of 600 nM. With `COCCN1CCC(C(=O)NCC(C)(C)c2nc(-c3ccc(Br)c(O)c3)c(-c3ccncc3)[nH]2)CC1` the IC50 was 910 nM. Work on `COc1ccc(CNCc2ccsc2)cc1-c1ccc(S(=O)(=O)NCCN2CCCC2)c(C)c1` yielded an IC50 of 900 nM. With `Cc1ccc(CNC(=O)[C@H](CCCN)Nc2nc(NCC3CCCCC3)ncc2C)cc1` the IC50 was 990 nM. Work on `CCCC(=O)NC(c1cccs1)c1cc(Cl)c2cccnc2c1O` (stereo not drawn) yielded an IC50 of 850 nM. Compound `O=C(CCc1cnc[nH]1)Nc1cccc(-c2ccc(-c3nc4ccc(F)cc4[nH]3)cc2)c1` has an IC50 of 240 nM. In the case of `CN1CCN(c2cccc(Nc3nccc(NCC(O)c4ccccc4)n3)c2)CC1` (stereo not drawn), the IC50 is reported as 720 nM. In the case of `c1ccc(-c2nc(NC3CCCCC3)cc(C3CC3)n2)nc1`, the IC50 is reported as 730 nM. `O=C(/C=C/c1ccc(Cl)c(Cl)c1)NCCCCCN1C2CCC1CC(c1c[nH]c3ccccc13)C2` (stereo not drawn) gave an IC50 of 840 nM. With `CC(=O)c1cccc2c(NC(=O)Nc3ccc4nccc(N5CCN(C)CC5)c4c3)cccc12` the IC50 was 400 nM. `CN(C)c1ccc(N2C(N)=NC(N)=NC23CCCC3)cc1` gave an IC50 of 930 nM. For `OCCNc1nc(Nc2cccc(O)c2)nc2ccccc12`, the IC50 was 390 nM. For `COc1ccc2nccc([C@@H](O)CN3CCC(NC(=O)c4cccc(-c5cc(C)no5)c4)CC3)c2c1`, the IC50 was 340 nM. Compound `O=C(NCCCCCN1CCC(c2c[nH]c3ccccc23)CC1)Nc1ccc(Br)cc1` has an IC50 of 920 nM. For `CCOC(=O)c1c(CSc2ccccc2)oc2cc(CN(C)C)c(O)c(Cl)c12`, the IC50 was 660 nM. `Cc1cc(CN2CC[C@H](NC(=O)c3ccc(Cl)c(Cl)c3)C2)ccc1OCCN1CCCC1` showed an IC50 of 1160 nM. `O=C(NC1CCC(CCN2Cc3ccc(Br)cc3C2)CC1)c1cccc(-c2cccnc2)c1` (stereo not drawn) gave an IC50 of 930 nM. `COc1ccc(C2CC(c3cccs3)=NN2C(=O)COc2cccc3c2CCCC3O)cc1OC` (stereo not drawn) gave an IC50 of 1150 nM. Compound `COc1ccc(Cl)cc1NC(=O)Nc1cc(C)nc2ccccc12` has an IC50 of 290 nM. In the case of `O=C(Nc1ccsc1)Nc1cccc(-c2ccc(-c3nc4ccc(C(F)(F)F)cc4[nH]3)cc2)c1`, the IC50 is reported as 350 nM. With `O=C(/C=C/c1ccc(C(F)(F)F)cc1)NC1CCC(CN2CCC(c3c[nH]c4ccccc34)CC2)CC1` (stereo not drawn) the IC50 was 960 nM and 370 nM. `Cn1cnc(CCNC(=O)c2ccc(-c3cccc(-c4nc5ccc(F)cc5[nH]4)c3)cc2)c1` showed an IC50 of 680 nM. Work on `N#Cc1cc(C(=O)Nc2ccccc2)c(N)nc1SCC(=O)Nc1ccc(Br)cc1` yielded an IC50 of 1100 nM. `COc1ccc(C2CCN(CCCNC(=O)c3ccc(NC(=O)c4ccc(Cl)cc4)cc3)CC2)c(OC)c1` showed an IC50 of 760 nM. Work on `Cc1ccc(-n2c(=O)c3c(n4c(SC(C)C)nnc24)-c2ccccc2CC32CCCCC2)cc1` yielded an IC50 of 950 nM. For `COc1cc(N(Cc2ccccc2C)S(=O)(=O)Cc2ccccc2[N+](=O)[O-])c(OC)cc1Cl`, the IC50 was 1010 nM. Work on `Cc1csc(-c2nc(NCc3cccnc3)ncc2-c2ccsc2)n1` yielded an IC50 of 1190 nM. `C[C@@H]1CN(c2ncc(-c3ccc(CNC4Cc5ccccc5C4)cc3)cn2)C[C@H](C)N1` was tested, and the IC50 was 1160 nM. `COc1ccc(NC(=O)/C=C/c2ccccc2Cl)cc1OCCN1CCC(N(C)C)CC1` gave an IC50 of 970 nM. `O=C(NCc1ccccc1)NC(CCCN1CCC(Oc2cccc(Cl)c2)CC1)c1ccc(Cl)c(Cl)c1` (stereo not drawn) gave an IC50 of 860 nM. For `O=C(Nc1cc(Cl)cc(Cl)c1)Nc1ccccc1C(=O)NC1CCCCC1`, the IC50 was 750 nM. `O=C(c1cccc(Cl)c1)N1CCN(c2ccc([N+](=O)[O-])c(NC3CC3)c2)CC1` gave an IC50 of 870 nM. Work on `CCc1cn2c3c(cc(C(=O)N[C@@H](Cc4ccccc4)[C@H](O)CNCCOC)cc13)N(C)S(=O)(=O)CC2` yielded an IC50 of 950 nM. Work on `CN(C)CCCn1cc(C(=O)OC2C[C@H]3CC[C@@H](C2)N3C)c2cc(-c3ccccc3)ccc21` (stereo partly drawn) yielded an IC50 of 840 nM. `COCCNCc1ccc(-c2cccc(CNc3ccc(OC)cc3)c2)cc1` was tested, and the IC50 was 1040 nM. Work on `CCOC(=O)c1ccc(NC(=O)NCCCC2CCCN(CCCCCNC(=O)/C=C/c3ccc(Cl)c(Cl)c3)C2)cc1` (stereo not drawn) yielded an IC50 of 860 nM. With `CC(C)(C)C(=O)Nc1ccccc1Oc1ccc(Cl)cc1` the IC50 was 10 nM. Work on `CC(=O)Oc1cc(C)ccc1C1CCN(CCCCNC(=O)c2ccc(-c3ccc(C(F)(F)F)cc3)cc2)CC1` yielded an IC50 of 650 nM. For `CNc1ccc(CNCc2ccc(-c3ccc(-c4nc5c(C)cccc5[nH]4)cc3)cc2)cc1`, the IC50 was 320 nM. `CCOc1ccc(NC(C)=O)c(O)c1` showed an IC50 of 840 nM. With `COc1ccc2nccc([C@@H](O)CN3CCC(NC(=O)c4ccc(Cl)c(Cl)c4)CC3)c2c1` the IC50 was 610 nM. `CNCCN(C)C(=O)Oc1c(Cl)c(C)nc(C)c1-c1ccc(Oc2ccc(OC(F)(F)F)cc2)cc1` showed an IC50 of 130 nM. `CC(C)Oc1cc2c(cc1NS(=O)(=O)c1ccc(-c3ccc(Cl)cc3)cc1)CCN(C)CC2` was tested, and the IC50 was 1040 nM. Work on `COc1ccccc1Nc1nc(C)cc(NCc2ccc(-n3ccnc3)cc2)n1` yielded an IC50 of 1050 nM. For `Cc1nc(N)nc(N)c1-c1ccc(Cl)cc1`, the IC50 was 770 nM. With `CN1CCc2cc(I)c(O)cc2C1Cc1ccccc1Cl` (stereo not drawn) the IC50 was 790 nM. `COc1ccc(-n2ccnc2SCC(=O)Nc2cc(C(F)(F)F)ccc2Cl)c(OC)c1` showed an IC50 of 40 nM. With `O=C(Cc1ccc([N+](=O)[O-])cc1)N1CCc2cc3nccc(N4CCN5CCC[C@H]5C4)c3cc21` the IC50 was 840 nM. With `Cc1cc(-c2ccnc(Nc3cccc(C#N)c3)n2)cc(C)c1O` the IC50 was 920 nM.
